Assay [1] deals with B16-F10. Nature of the assay: Inhibition of SNP-induced NO production in mouse B16F10 cells incubated 1 hr prior to SNP challenge measured after 48 hrs by Griess assay. In kind it is functional, cell-based. (Griess reagent forms a coloured azo dye with nitrite.)
Assay [2] relates to B16-F10. The assay can be described thus: Antimelanogenic activity in mouse B16F10 cells assessed as reduction in SNP-induced tyrosinase protein level by Western blotting analysis. The assay is classed as functional, cell-based. (In general: Immunoblotting shows a protein as a band on a membrane.)
Assay [3] concerns B16-F10. The assay can be described thus: Inhibition of SNP-induced NO production in mouse B16F10 cells at 4 uM incubated 1 hr prior to SNP challenge measured after 48 hrs by Griess assay (reference value: 237.84 +/- 4.12%); values are per cent of control.
Assay [4] relates to B16-F10. The assay can be described thus: Antimelanogenic activity in mouse B16F10 cells assessed as reduction in SNP-induced nuclear MITF level by Western blotting analysis. The assay is classed as functional, cell-based.
Assay [5] deals with B16-F10. Nature of the assay: Antimelanogenic activity in mouse B16F10 cells assessed as reduction of SNP-induced melanin level at 0.5 uM incubated for 1 hr prior to SNP challenge measured after 48 hrs (reference value: 282.59 +/- 47.06%). In kind it is functional.
Assay [6] has as its target T1, Tyrosinase (Mus musculus) (UniProt P11344).
T1 sequence (whole entry): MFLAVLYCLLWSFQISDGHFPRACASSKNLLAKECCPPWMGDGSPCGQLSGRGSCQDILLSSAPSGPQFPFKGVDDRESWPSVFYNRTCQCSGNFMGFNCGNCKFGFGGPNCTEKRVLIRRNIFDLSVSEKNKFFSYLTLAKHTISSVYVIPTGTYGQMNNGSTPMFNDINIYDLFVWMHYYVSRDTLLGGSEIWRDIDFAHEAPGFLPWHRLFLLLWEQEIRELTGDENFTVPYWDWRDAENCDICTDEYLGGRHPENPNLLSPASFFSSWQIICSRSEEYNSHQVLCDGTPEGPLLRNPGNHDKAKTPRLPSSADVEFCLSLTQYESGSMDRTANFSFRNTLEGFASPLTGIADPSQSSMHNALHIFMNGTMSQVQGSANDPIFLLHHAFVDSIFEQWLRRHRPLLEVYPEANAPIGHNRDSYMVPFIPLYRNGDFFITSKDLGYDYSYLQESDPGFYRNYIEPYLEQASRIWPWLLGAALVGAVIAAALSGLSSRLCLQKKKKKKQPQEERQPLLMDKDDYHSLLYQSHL
Nature of the assay: Inhibition of tyrosinase in SNP-stimulated mouse B16F10 cells at 16 uM incubated for 1 hr prior to SNP challenge measured after 48 hrs (reference value: 198.83 +/- 11.46%). The assay is classed as cell-based. As to conditions: B16-F10, values are per cent of control.

Assay [7] relates to B16-F10. The assay can be described thus: Antimelanogenic activity in mouse B16F10 cells assessed as reduction in SNP-induced phosphorylated CREB level at 16 uM by Western blotting analysis. The assay is classed as functional, cell-based.
Assay [8] concerns B16-F10. The assay can be described thus: Antimelanogenic activity in mouse B16F10 cells assessed as reduction of SNP-induced melanin level incubated for 1 hr prior to SNP challenge measured after 48 hrs. In kind it is functional, cell-based.
Assay [9] has as its system B16-F10. Nature of the assay: Inhibition of SNP-induced NO production in mouse B16F10 cells assessed as decrease of intracellular cGMP level incubated for 1 hr prior to SNP challenge measured after 30 mins by EIA relative to control. The assay is classed as functional, cell-based.
Assay [10] relates to B16-F10. The assay can be described thus: Inhibition of SNP-induced NO production in mouse B16F10 cells assessed as decrease of intracellular cGMP level at 0.5 uM incubated for 1 hr prior to SNP challenge measured after 30 mins by EIA relative to control. In kind it is functional. To be noted: values are per cent of control.
Assay [11] concerns B16-F10. The assay can be described thus: Inhibition of SNP-induced NO production in mouse B16F10 cells assessed as decrease of intracellular cGMP level at 16 uM incubated for 1 hr prior to SNP challenge measured after 30 mins by EIA relative to control. To be noted: values are per cent of control. The assay is classed as functional.
Assay [12] addresses T1, Tyrosinase (Mus musculus). Nature of the assay: Inhibition of tyrosinase in SNP-stimulated mouse B16F10 cells at 0.5 uM incubated for 1 hr prior to SNP challenge measured after 48 hrs (reference value: 198.83 +/- 11.46%). As to conditions: B16-F10, values are per cent of control. In kind it is cell-based.
Assay [13] concerns B16-F10. The assay can be described thus: Inhibition of SNP-induced NO production in mouse B16F10 cells at 16 uM incubated 1 hr prior to SNP challenge measured after 48 hrs by Griess assay (reference value: 237.84 +/- 4.12%); values are per cent of control.
Assay [14] deals with B16-F10. The assay can be described thus: Inhibition of SNP-induced NO production in mouse B16F10 cells assessed as decrease of intracellular cGMP level at 4 uM incubated for 1 hr prior to SNP challenge measured after 30 mins by EIA relative to control. In kind it is functional. To be noted: values are per cent of control.
In assay [15] the test system is B16-F10. The assay can be described thus: Antimelanogenic activity in mouse B16F10 cells assessed as reduction of SNP-induced melanin level at 16 uM incubated for 1 hr prior to SNP challenge measured after 48 hrs (reference value: 282.59 +/- 47.06%). In kind it is functional.
Assay [16] deals with B16-F10. Nature of the assay: Antimelanogenic activity in mouse B16F10 cells assessed as reduction of SNP-induced melanin level at 4 uM incubated for 1 hr prior to SNP challenge measured after 48 hrs (reference value: 282.59 +/- 47.06%). The assay is classed as functional.
For assay [17], the target named is T1, Tyrosinase (Mus musculus). The assay can be described thus: Inhibition of tyrosinase in SNP-stimulated mouse B16F10 cells at 4 uM incubated for 1 hr prior to SNP challenge measured after 48 hrs (reference value: 198.83 +/- 11.46%). In kind it is cell-based. To be noted: B16-F10, values are per cent of control.
The test system of assay [18] is B16-F10. The assay can be described thus: Antimelanogenic activity in mouse B16F10 cells assessed as reduction in SNP-induced phosphorylated CREB level at 0.5 to 4 uM by Western blotting analysis. The assay is classed as functional, cell-based.
Assay [19] deals with B16-F10. The assay can be described thus: Inhibition of SNP-induced NO production in mouse B16F10 cells at 0.5 uM incubated 1 hr prior to SNP challenge measured after 48 hrs by Griess assay (reference value: 237.84 +/- 4.12%); values are per cent of control.
Assay [20] concerns the target T1, Tyrosinase (Mus musculus). The assay can be described thus: Inhibition of tyrosinase in mouse B16F10 cells at 30 uM incubated for 1 hr prior to SNP challenge measured after 48 hrs (reference value: 198.83 +/- 11.46%). The assay is classed as cell-based. To be noted: B16-F10.

Activity calls are given as the source filed them. No cut-off for these calls is given here.

A word on the inhibition: it is the drop in the measured response relative to a control, in per cent. With `O=C1NC(=O)/C(=C/c2ccc(O)cc2O)S1`, the inhibition result with B16-F10 [1], in the assay with B16-F10 [2], with B16-F10 [4], in the assay on B16-F10 [8] and in the assay on B16-F10 [9] was “Dose-dependent effect” each time. The results for the level, % of control at 4 µM with B16-F10 [3] and in the assay with B16-F10 [16] were 183% and 114%, respectively. In addition, the level, % of control at 0.5 µM was 151% in the assay on B16-F10 [5] and 200% in the assay on B16-F10 [19]. Also, the residual activity in [6] came out at 31.8%; in [12], 84.8%; in assay [17], 60.5%. Besides, the inhibition result in the assay with B16-F10 [7] was “Active”. For the same compound, the response, % of control at 0.5 µM with B16-F10 [10] came out at 177%. Besides, the response, % of control at 16 µM with B16-F10 [11] turned out to be 83.1%. Moreover, the figures for the level, % of control at 16 µM in the assay on B16-F10 [13] and in the assay on B16-F10 [15] were 172% and 100%, respectively. Besides, the response, % of control at 4 µM in the assay with B16-F10 [14] is 154%. Besides, the inhibition entry in the assay on B16-F10 [18] was “inactive”.
`CC1(C)N([O])C(c2ccc(C(=O)O)cc2)=[N+]([O-])C1(C)C`: the inhibition in assay [20] turned out to be 34.3%. For the same compound, the inhibition result in the assay with B16-F10 [7] was “Active”. For the same compound, the response, % of control at 16 µM with B16-F10 [11] was determined as 153%. The level, % of control at 16 µM with B16-F10 [13] was 206%; with B16-F10 [15], 173%.

These data come from ChEMBL document CHEMBL2406931, “The inhibitory effect of a synthetic compound, (Z)-5-(2,4-dihydroxybenzylidene) thiazolidine-2,4-dione (MHY498), on nitric oxide-induced melanogenesis” (2013).
